Results on 15 molecules are retold here after US8263651B2, “Use of cis-epoxyeicosatrienoic acids and inhibitors of soluble epoxide hydrolase to treat conditions mediated by PBR, CB2, and NK2 receptors” (The Regents of the University of California, priority 2006, dated 2012).

The structures appear in SMILES notation. Where two headings read alike, the source gives them in different places.

One assay concerns the target T1, Cannabinoid CB2 (Homo sapiens, UniProt P34972).
T1 construct: host or cells: CHO cells
The assay can be described thus: radio-ligand binding competition, CB2 ([3H]WIN 55212-2). The conditions noted are these: for % Inhibition of Control Specific Binding: individual EET isomers, 3 μM.

The next assay deals with Dopamine D3 (Homo sapiens, UniProt P35462). The experiment in a line: radio-ligand binding competition, D3. The conditions noted are these: for IC50: displacement of high affinity ligand; for % Inhibition of Control Specific Binding: second round, individual EET isomers, 3 μM.
Dopamine D3, sequence (P35462 whole entry): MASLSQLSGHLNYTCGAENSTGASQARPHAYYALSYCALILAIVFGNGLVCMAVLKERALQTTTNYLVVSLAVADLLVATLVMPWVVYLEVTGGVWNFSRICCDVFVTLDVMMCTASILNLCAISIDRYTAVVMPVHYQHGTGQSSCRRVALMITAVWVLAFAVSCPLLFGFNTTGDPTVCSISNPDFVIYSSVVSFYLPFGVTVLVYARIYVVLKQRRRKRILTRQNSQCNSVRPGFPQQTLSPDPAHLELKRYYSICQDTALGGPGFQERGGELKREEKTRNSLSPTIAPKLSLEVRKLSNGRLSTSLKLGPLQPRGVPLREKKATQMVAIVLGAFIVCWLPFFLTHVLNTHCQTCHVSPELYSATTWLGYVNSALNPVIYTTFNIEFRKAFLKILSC
A further assay addresses T2, BZD (peripheral) (Rattus norvegicus, UniProt P16257).
T2 construct: containing 0.2 mg of cardiac membrane protein and the radioactive ligand; tissue CEREP (contract assay); host or cells: rat heart ventricular membranes
The experiment in a line: radio-ligand binding competition, peripheral benzodiazepine receptor ([3H]PK 11195). The conditions noted are these: for IC50: displacement of [3H]PK 11195; for inhibition of binding of [3H]PK 11195 (FIG. 1): increasing concentrations; for % Inhibition of Control Specific Binding: second round, individual EET isomers, 3 μM. (In general: Displacement assays read how much labelled ligand stays bound in the presence of the test substance.)

The target of another assay is T3, Neurokinin NK2 (Homo sapiens, UniProt P21452).
T3 sequence (P21452 1-398): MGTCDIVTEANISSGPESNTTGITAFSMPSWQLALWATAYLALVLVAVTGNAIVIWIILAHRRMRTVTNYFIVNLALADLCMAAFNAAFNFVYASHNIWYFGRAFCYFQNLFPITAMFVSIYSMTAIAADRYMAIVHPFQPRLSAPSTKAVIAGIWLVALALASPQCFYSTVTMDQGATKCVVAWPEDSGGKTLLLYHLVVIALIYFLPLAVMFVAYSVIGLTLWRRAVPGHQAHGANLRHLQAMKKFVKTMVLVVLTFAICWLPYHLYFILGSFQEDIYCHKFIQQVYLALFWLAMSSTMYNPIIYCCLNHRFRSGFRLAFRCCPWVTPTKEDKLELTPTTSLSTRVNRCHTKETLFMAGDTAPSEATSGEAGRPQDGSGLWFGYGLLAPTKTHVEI
The assay can be described thus: radio-ligand binding competition, NK2. The conditions noted are these: for IC50: displacement of high affinity ligand; for % Inhibition of Control Specific Binding: second round, individual EET isomers, 3 μM.

Assay [1] relates to LPS-elicited thermal hyperalgesia. The assay can be described thus: LPS-elicited inflammatory pain model, hindpaw thermal withdrawal latency. The conditions noted are these: for effect on sEHI-elicited analgesia: with LPS + sEHI compound 950, two hours post LPS (FIG. 5); for effect on the antihyperalgesic action of sEHI AEPU: topical, with LPS + AEPU (FIGS. 2A, 2B, 4). Format: in vivo, rat. The method, then:
Inflammatory pain model: The nociception response was measured using the hind paw withdrawal latency test modified after Hargreaves at al., Pain, 32(1):77-88 (1988). Male Sprague-Dowley rats weighing 240-260 g, are individually housed at UC Davis Animal Resource Facility under standard conditions with free access to food and water, and maintained for at least 1 week before the experiments. On the day of the experiments, the animals' basal response is measured and then compounds are topically administered preceding an injection with 10 ug of endotoxin (1Lipopolysaccharide, “LPS”, Sigma-Aldrich, St. Louis, Mo.). Nociceptive response is then measured at 120 minutes post-LPS injection. Compounds are formulated by dissolving them in ethanol and mixing with cream in a ratio of 1:8. Eight animals per group are used. A dose response curve is obtained by administering increasing concentrations of EETs and measuring nociceptive response.
Behavioral nociceptive testing was conducted by assessing thermal hindpaw withdrawal latencies (“TWL”) using a commercial Hargreaves (Hargreaves et al., A new and sensitive method for measuring thermal nociception in cutaneous hyperalgesia. Pain 32:77-88 (1988)) apparatus (IITC Life Science Inc., Woodland Hills, Calif.). Male Sprague-Dawley rats weighing 240-250 g, were individually housed at the UC Davis Animal Resource Facility under standard conditions with free access to food and water, and maintained for at least 1 week before the experiments. On the day of the experiment, the rats were transferred to a quiet room, acclimated for 1 h, and their baseline responses measured. In pilot experiments, the intensity of the thermal stimulus was set to produce a baseline TWL of 7-8 s. Following baseline measurements, rats were first treated with 200 μl of vehicle or compound-formulated cream by topical application to one hind paw. Compounds (including sEHI, steroid synthesis inhibitors, steroid receptor antagonists, and cannabinoid receptor antagonists, as shown in the Figure legends) were formulated by dissolving them in ethanol and mixing with Vanicream® (Pharmaceutical Specialties, Inc., Rochester, Minn.) in a ratio of 1:9. The cream was thoroughly massaged across the entire hind paw surface over a 2 min period. After 1.5 hours rats were treated with 200 μl of sEHI formulated cream. Within 10 min of sEHI application, lipopolysaccharide (“LPS”, 10 μg in 50 μl 0.9% NaCl) was injected subcutaneously into the plantar surface of the treated paw. Immediately following LPS injection, animals were placed in acrylic chambers on a glass platform maintained at a temperature of 30±1° C. for TWL-measurement. During TWL measurement, a beam of radiant heat was focused onto the mid-portion of the plantar surface of the treated hind paw until the rat moved its stimulated hindpaw abruptly away from the heat stimulus. The duration of heat application necessary to elicit a withdrawal was designated as TWL. A maximum stimulus duration of 22 s was imposed to prevent tissue damage. Five TWL measurements were taken at 3-4 min interstimulus intervals for each of the time points following treatment. The three median TWLs were averaged for each animal at each time point.

Setting [2] is: displacement of high affinity ligand, read-out: IC50, CB2.

T1 sequence (P34972 whole entry): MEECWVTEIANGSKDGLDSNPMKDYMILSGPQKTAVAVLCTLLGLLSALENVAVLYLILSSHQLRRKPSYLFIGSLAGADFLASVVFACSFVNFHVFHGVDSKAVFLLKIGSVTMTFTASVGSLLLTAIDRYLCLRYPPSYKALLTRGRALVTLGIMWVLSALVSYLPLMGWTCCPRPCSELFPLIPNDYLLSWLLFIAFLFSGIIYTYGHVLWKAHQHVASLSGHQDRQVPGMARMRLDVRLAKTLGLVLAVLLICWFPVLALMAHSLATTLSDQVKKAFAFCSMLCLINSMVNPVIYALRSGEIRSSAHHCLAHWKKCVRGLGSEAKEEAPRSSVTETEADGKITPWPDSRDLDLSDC

In general, IC50 refers to the concentration that inhibits the measured activity by half. For `CCCCC/C=C\C/C=C\C/C=C\CC1OC1CCCC(=O)OC` (centres unmarked) [5,6 EET-me], the IC50 was 20 µM at Cannabinoid CB2 (setting [2]), greater than 100 µM at Dopamine D3, 12 µM at BZD (peripheral) and 36 µM at Neurokinin NK2.
For `CCCCC/C=C\C/C=C\C/C=C\CC1OC1CCCC(=O)O` (centres unmarked) [5,6-EET], the “% Inhibition of Control Specific Binding” value at Cannabinoid CB2 (second round) is listed as 25%; on Dopamine D3, 18%; at BZD (peripheral), 27%; at Neurokinin NK2 it was 25%. Moreover, the “inhibition of binding of [3H]PK 11195 (FIG. 1)” value on BZD (peripheral) is on record as “completely inhibit”.
In the case of `CCCCC/C=C\C/C=C\CC1OC1C/C=C\CCCC(=O)OC` (centres unmarked) [8,9 EET-me], the 50% inhibitory concentration (IC50) on Cannabinoid CB2 (setting [2]), on Dopamine D3, on BZD (peripheral) and on Neurokinin NK2 was greater than 100 µM in each case.
With `CCCCC/C=C\C/C=C\CC1OC1C/C=C\CCCC(=O)O` (centres unmarked) [8,9-EET], the “% Inhibition of Control Specific Binding” value is recorded as −2% on Cannabinoid CB2 (second round), 9% on Dopamine D3, 11% at BZD (peripheral) and 10% on Neurokinin NK2.
For `CCCCC/C=C\CC1OC1C/C=C\C/C=C\CCCC(=O)OC` (centres unmarked) [11,12 EET-me], the IC50 was greater than 100 µM on Cannabinoid CB2 (setting [2]), greater than 100 µM at Dopamine D3, 140 µM at BZD (peripheral) and greater than 100 µM on Neurokinin NK2.
As to `CCCCC/C=C\C[C@H]1O[C@H]1C/C=C\C/C=C\CCCC(=O)O` [11,12-EET], the “% Inhibition of Control Specific Binding” value came out at 3% on Cannabinoid CB2 (second round), 6% on Dopamine D3, 28% on BZD (peripheral) and 1% at Neurokinin NK2. In addition, the “inhibition of binding of [3H]PK 11195 (FIG. 1)” value on BZD (peripheral) is reported as “completely inhibit”.
Turning to `CCCCCC1OC1C/C=C\C/C=C\C/C=C\CCCC(=O)OC` (centres unmarked) [14,15 EET-me], the IC50 on Cannabinoid CB2 (setting [2]) was greater than 100 µM; at Dopamine D3 it was greater than 100 µM; on BZD (peripheral), 12 µM; on Neurokinin NK2, greater than 100 µM.
In the case of `Cc1c(C(=O)NN2CCCCC2)nn(-c2ccc(Cl)cc2Cl)c1-c1ccc(I)cc1` [AM251, N-(piperidin-1-yl)-5-(4-iodophenyl)-1-(2,4-dichlorophenyl)-4-methy 1-1H-pyrazole-3-carboxamide], the “effect on sEHI-elicited analgesia” value in assay [1] is “did not block”.
The same measure, in the same setting: the same measure for `COc1ccc(C(=O)c2c(C)n(CCN3CCOCC3)c3cc(I)ccc23)cc1` [AM630, iodopravadoline]: “completely blocked”.
On to `CC(C)(C)NC(=O)[C@H]1CC[C@H]2[C@@H]3CC[C@H]4NC(=O)C=C[C@]4(C)[C@H]3CC[C@]12C` [Finasteride], for which the “effect on response to LPS administration” value in assay [1] (agent + LPS, no sEHI (FIG. 2D)) is on record as “do not they modify”. Besides, in assay [1] (agent by itself, no LPS (FIG. 2C)), the “effect on baseline TWL response” value was “no impact”. The “effect on the antihyperalgesic action of sEHI AEPU” value in assay [1] was “blocked”.
Consider `Cc1c(C(=O)c2cccc3ccccc23)c2cccc3c2n1C(CN1CCOCC1)CC3=O` (centres unmarked) [WIN55212-2, 4,5-dihydro-2-methyl-4(4-morpholinylmethyl)-1-(1-naphthalenylcarbonyl)-6H-pyrrolo[3,2,1ij]quinolin-6-one, reference compound], for which the IC50 on Cannabinoid CB2 (reference compound, first round, read-out: IC50 Ref (affinity of reference compound)) was 0.0076 µM; on Cannabinoid CB2 (reference compound, second round, read-out: IC50 Ref), 0.0027 µM.
`CC#C[C@]1(O)CC[C@H]2[C@@H]3CCC4=CC(=O)CCC4=C3[C@@H](c3ccc(N(C)C)cc3)C[C@@]21C` [mifepristone]: the “effect on the antihyperalgesic action of sEHI AEPU” value in assay [1] is “did not have any impact”.
On the same count and under the same terms, to `CC1(C)NC(=O)N(c2ccc([N+](=O)[O-])c(C(F)(F)F)c2)C1=O` [nilutamide] belongs “did not have any impact”; to `CC(=O)S[C@@H]1CC2=CC(=O)CC[C@]2(C)[C@H]2CC[C@@]3(C)[C@@H](CC[C@@]34CCC(=O)O4)[C@H]12` [spironoloactone], “did not have any impact”; to `CC/C(=C(\c1ccccc1)c1ccc(OCCN(C)C)cc1)c1ccccc1` [tamoxifen], “did not have any impact”.
